Assay results: ChEMBL document CHEMBL5126578, “Organocatalyzed umpolung addition for synthesis of heterocyclic-fused arylidene-imidazolones as anticancer agents” (Bioorg Med Chem, 2022)
One block for each molecule: values may come before it. Calls of active or inactive are those of the source. No cut-off for these calls is given here.

What was measured:
MCF7 [1] = test: Antiproliferative activity against human MCF7 cells assessed as reduction in cell viability incubated for 48 hrs by MTT assay; type: functional, cell-based; conditions: MCF7, 48 h
MCF7 [2] = test: Induction of apoptosis in human MCF7 cells assessed as fold change as increase in Bax protein expression level at 5 uM by Western blot analysis; type: functional
MCF7 [3] = test: Inhibition of human DNA topoisomerase activity in human MCF cells nuclear lysate assessed mediated supercoiled plasmid DNA relaxation by analyzing migration of supercoiled DNA at 1 uM by agarose gel electrophoresis; type: subcellular
MCF7 [4] = test: Induction of apoptosis in human MCF7 cells assessed as fold change as decrease in BCL-XL protein expression level at 3.8 uM by Western blot analysis; type: functional
MCF7 [5] = test: Induction of cell cycle arrest in human MCF7 cells assessed as accumulation at S phase at 3.8 uM for 48 hrs by PI staining based flow cytometry (Rvb=4.6%); type: functional
MCF7 [6] = test: Induction of apoptosis in human MCF7 cells assessed as fold change as increase in Bax protein expression level at 3.8 uM by Western blot analysis; type: functional
[7] = Cytotoxicity against human MCF-10A cells assessed as reduction in cell viability for 48 hrs by MTT assay; type: toxicity, cell-based
MCF7 [8] = test: Induction of apoptosis in human MCF7 cells assessed as fold change as decrease in BCL-XL protein expression level at 5 uM by Western blot analysis; type: functional
[9] = Antiproliferative activity against human H357 cells assessed as reduction in cell viability for 48 hrs by MTT assay; type: functional, cell-based; conditions: H357, 48 h
MCF7 [10] = test: Induction of cell cycle arrest in human MCF7 cells assessed as accumulation at G2/M phase at 3.8 uM for 48 hrs by PI staining based flow cytometry (Rvb= 21.4%); type: functional
MCF7 [11] = test: Induction of apoptosis in human MCF7 cells assessed as increase in number of apoptotic nuclei at 3.8 to 5 uM for 48 hrs by DAPI staining based fluorescence microscopy; type: functional, cell-based; conditions: dose 3.8-5 µM
MCF7 [12] = test: Induction of apoptosis in human MCF7 cells assessed as upregulation of Caspase-3 expression level at 3.8 to 5 uM by TRIT-C staining based fluorescence microscopy; type: functional, cell-based; conditions: dose 3.8-5 µM
MCF7 [13] = test: Induction of cell cycle arrest in human MCF7 cells assessed as accumulation at Sub-G1 phase at 3.8 uM for 48 hrs by PI staining based flow cytometry (Rvb= 0.9%); type: functional
MCF7 [14] = test: Induction of cell cycle arrest in human MCF7 cells assessed as accumulation at G1 phase at 3.8 uM for 48 hrs by PI staining based flow cytometry (Rvb= 73.1%); type: functional
HEK-293T = test: Antiproliferative activity against human HEK293T cells assessed as reduction in cell viability for 48 hrs by MTT assay; type: functional, cell-based
MDA-MB-231 [15] = test: Antiproliferative activity against human MDA-MB-231 cells assessed as reduction in cell viability for 48 hrs by MTT assay; type: functional, cell-based; conditions: MDA-MB-231, 48 h
MDA-MB-231 [16] = test: Antiproliferative activity against human MDA-MB-231 cells for 48 hrs by MTT assay; type: functional, cell-based; conditions: MDA-MB-231, 48 h
[17] = Antiproliferative activity against VEGF-stimulated human Endothelial cells pre-incubated for 2 hrs followed by stimulation with human VEGF, bFGF and FBS for 18 hrs and measured after 28 hrs by AlamarBlue assay; type: functional, cell-based; conditions: Endothelial cell
[18] = target: Epidermal growth factor receptor (Homo sapiens, UniProt P00533); test: Inhibition of EGFR (unknown origin) assessed as kinase activity by measuring ATP remaining for 40 mins in presence of ATP by Kinase-Glo Plus luminescence kinase assay
Epidermal growth factor receptor, sequence (P00533 whole entry): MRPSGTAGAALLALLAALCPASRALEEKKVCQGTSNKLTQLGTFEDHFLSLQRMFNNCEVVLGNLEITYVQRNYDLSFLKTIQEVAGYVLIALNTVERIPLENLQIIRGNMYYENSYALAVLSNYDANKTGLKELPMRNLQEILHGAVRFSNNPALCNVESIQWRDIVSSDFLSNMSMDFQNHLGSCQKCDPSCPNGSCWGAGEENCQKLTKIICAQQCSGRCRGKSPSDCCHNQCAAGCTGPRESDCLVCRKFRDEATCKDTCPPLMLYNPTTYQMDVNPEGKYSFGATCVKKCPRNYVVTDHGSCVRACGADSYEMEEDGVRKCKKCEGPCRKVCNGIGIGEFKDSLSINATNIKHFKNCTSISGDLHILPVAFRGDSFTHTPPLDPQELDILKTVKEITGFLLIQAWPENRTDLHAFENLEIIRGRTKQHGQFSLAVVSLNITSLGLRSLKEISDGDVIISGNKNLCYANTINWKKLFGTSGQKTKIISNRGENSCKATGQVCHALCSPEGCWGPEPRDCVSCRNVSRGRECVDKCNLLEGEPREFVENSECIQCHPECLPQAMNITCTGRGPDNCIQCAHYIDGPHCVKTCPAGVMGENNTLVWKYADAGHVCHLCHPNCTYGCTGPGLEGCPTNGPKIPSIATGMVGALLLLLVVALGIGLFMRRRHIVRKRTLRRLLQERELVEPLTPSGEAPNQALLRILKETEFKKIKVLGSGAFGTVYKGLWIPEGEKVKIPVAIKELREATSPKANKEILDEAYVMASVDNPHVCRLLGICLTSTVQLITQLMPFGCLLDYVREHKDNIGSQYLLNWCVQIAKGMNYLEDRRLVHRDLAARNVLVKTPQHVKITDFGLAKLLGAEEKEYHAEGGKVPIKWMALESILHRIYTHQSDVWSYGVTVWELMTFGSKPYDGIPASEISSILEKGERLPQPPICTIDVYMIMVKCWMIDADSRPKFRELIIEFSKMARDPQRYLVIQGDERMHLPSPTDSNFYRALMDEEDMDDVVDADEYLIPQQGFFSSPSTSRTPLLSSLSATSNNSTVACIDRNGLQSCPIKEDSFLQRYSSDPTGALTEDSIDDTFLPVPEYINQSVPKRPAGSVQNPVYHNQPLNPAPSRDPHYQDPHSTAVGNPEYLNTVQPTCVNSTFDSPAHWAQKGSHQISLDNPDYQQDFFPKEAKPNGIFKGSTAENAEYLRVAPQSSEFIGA

HeLa = test: Antiproliferative activity against human HeLa cells for 24 hrs by MTT assay; type: functional, cell-based
MCF7 [19] = test: Induction of cell cycle arrest in human MCF7 cells assessed as accumulation at Sub-G1 phase at 4.2 uM for 48 hrs by PI staining based flow cytometry (Rvb= 0.9%); type: functional
MCF7 [20] = test: Induction of apoptosis in human MCF7 cells assessed as increase in number of apoptotic nuclei at 4.2 to 5.5 uM for 48 hrs by DAPI staining based fluorescence microscopy; type: functional, cell-based; conditions: dose 4.2-5.5 µM
MCF7 [21] = test: Induction of apoptosis in human MCF7 cells assessed as fold change as decrease in BCL-XL protein expression level at 4.2 uM by Western blot analysis; type: functional
MCF7 [22] = test: Induction of apoptosis in human MCF7 cells assessed as fold change as decrease in BCL-XL protein expression level at 5.5 uM by Western blot analysis; type: functional
MCF7 [23] = test: Induction of apoptosis in human MCF7 cells assessed as fold change as increase in Bax protein expression level at 5.5 uM by Western blot analysis; type: functional
MCF7 [24] = test: Induction of cell cycle arrest in human MCF7 cells assessed as accumulation at G2/M phase at 4.2 uM for 48 hrs by PI staining based flow cytometry (Rvb= 21.4%); type: functional
MCF7 [25] = test: Inhibition of human DNA topoisomerase activity in human MCF cells nuclear lysate assessed mediated supercoiled plasmid DNA relaxation by analyzing migration of supercoiled DNA at 0.9 uM by agarose gel electrophoresis; type: subcellular
MCF7 [26] = test: Induction of apoptosis in human MCF7 cells assessed as upregulation of Caspase-3 expression level at 4.2 to 5.5 uM by TRIT-C staining based fluorescence microscopy; type: functional, cell-based; conditions: dose 4.2-5.5 µM
MCF7 [27] = test: Induction of cell cycle arrest in human MCF7 cells assessed as accumulation at G1 phase at 4.2 uM for 48 hrs by PI staining based flow cytometry (Rvb= 73.1%); type: functional
MCF7 [28] = test: Induction of apoptosis in human MCF7 cells assessed as fold change as increase in Bax protein expression level at 4.2 uM by Western blot analysis; type: functional
MCF7 [29] = test: Induction of cell cycle arrest in human MCF7 cells assessed as accumulation at S phase at 4.2 uM for 48 hrs by PI staining based flow cytometry(Rvb= 4.6%); type: functional
MCF7 [30] = test: Inhibition of human DNA topoisomerase activity in human MCF cells nuclear lysate assessed mediated supercoiled plasmid DNA relaxation by analyzing migration of supercoiled DNA at 0.5 uM by agarose gel electrophoresis; type: subcellular

Compound: COc1ccc(/C=C2\N=C3C(O)=CC=CN3C2=O)cc1
IC50 (MCF7 [1]): 10 µM

Compound: COC1=CC2=N/C(=C\c3ccccc3)C(=O)N2C=C1
IC50 (MCF7 [1]): 9.9 µM

Compound: COc1ccc2c(c1)sc1nc(/C=C/C(=O)c3ccc(OC)c(O)c3)cn12
IC50 (MDA-MB-231 [16]): 1.2 µM

Compound: CCN(CC)CCOc1cccc(-c2cn3c(n2)sc2ccccc23)c1
IC50 [17]: 0.0039 µM

Compound: COC1=CC2=N/C(=C\c3cc(OC)c(OC)c(OC)c3)C(=O)N2C=C1
IC50 (MCF7 [1]): 10 µM

Compound: O=C(Cc1csc2nc3ccccc3n12)Nc1cccc2ccccc12
IC50 [18]: 55 µM | IC50 (HeLa): 0.42 µM

Compound: COc1ccc2c(c1)SC1=N/C(=C\c3ccccc3)C(=O)N12
IC50 (MCF7 [1]): 10 µM

Compound: O=C1/C(=C/c2ccccc2)N=C2N=CC=CN12
IC50 (MCF7 [1]): 9.9 µM

Compound: O=C1/C(=C/c2ccccc2)N=C2C(Br)=CC(Br)=CN12
IC50 (MCF7 [1]): 10 µM

Compound: O=C1/C(=C/c2ccccc2)N=C2C([N+](=O)[O-])=CC(Br)=CN12
IC50 (MCF7 [1]): 10 µM

Compound: O=C(Cc1csc2nc3ccccc3n12)Nc1cccc(O)c1
IC50 [18]: 55 µM | IC50 (HeLa): 0.42 µM

Compound: CC1=CN2C(=O)/C(=C/c3ccccc3)N=C2C=C1
IC50 (MCF7 [1]): 10 µM

Compound: COc1cc([C@@H]2c3cc4c(cc3[C@@H](O[C@@H]3O[C@@H]5CO[C@@H](C)O[C@H]5[C@H](O)[C@H]3O)[C@H]3COC(=O)[C@H]23)OCO4)cc(OC)c1O [ETOPOSIDE]
inhibition (MCF7 [30]): Active | IC50 at 48 h [7]: 102 µM | IC50 [9]: 32 µM | IC50 (HEK-293T): 28 µM

Continued by falling IC50 (MCF7 [1]), values first:

IC50 (MCF7 [1]): 9.8 µM
Compound: Cc1cccc2c1N1C(=O)/C(=C/c3ccccc3)N=C1S2

IC50 (MCF7 [1]): 9.8 µM
Compound: O=C1/C(=C/c2ccccc2)N=C2C=CC=CN12

IC50 (MCF7 [1]): 9.8 µM
Compound: CC1=CC=CN2C(=O)/C(=C/c3ccccc3)N=C12

IC50 (MCF7 [1]): 9.8 µM
Compound: COC1=CC2=N/C(=C\c3ccc(OC)cc3)C(=O)N2C=C1

IC50 (MCF7 [1]): 9.7 µM
Compound: COC1=CC(OC)=NC2=N/C(=C\c3ccccc3)C(=O)N12

IC50 (MCF7 [1]): 9.7 µM
Compound: O=C1/C(=C/c2ccccc2)N=C2C(O)=CC=CN12

IC50 (MCF7 [1]): 9.7 µM
Compound: O=C1/C(=C/c2ccccc2)N=C2Sc3cc(Br)ccc3N12

IC50 (MCF7 [1]): 9.4 µM
Compound: O=C1/C(=C/c2ccccc2)N=C2Sc3ccccc3N12

IC50 (MCF7 [1]): 9.2 µM
Compound: O=C1/C(=C/c2ccccc2)N=C2C=C(O)C=CN12

IC50 (MCF7 [1]): 9 µM
Compound: O=C1/C(=C/c2ccccc2)N=C2C=CC([N+](=O)[O-])=CN12

IC50 (MCF7 [1]): 8.9 µM
Compound: CCOC(=O)Oc1c(OC)cc(/C=C2\N=C3C=C(OC)C=CN3C2=O)cc1OC

IC50 (MCF7 [1]): 7.8 µM
Compound: COc1ccc(/C=C2\N=C3Sc4cccc(OC)c4N3C2=O)cc1

IC50 (MCF7 [1]): 7.5 µM
Compound: COc1ccc(/C=C2\N=C3Sc4cccc(O)c4N3C2=O)cc1

IC50 (MCF7 [1]): 5.2 µM
Compound: O=C1/C(=C/c2ccc(Cl)cc2)N=C2C(O)=CC=CN12

IC50 (MCF7 [1]): 4.5 µM
Compound: COc1cccc2c1N1C(=O)/C(=C/c3ccccc3)N=C1S2

inhibition (MCF7 [25]): Active | IC50 (MCF7 [1]): 4.2 µM | IC50 (MDA-MB-231 [15]): 5.4 µM
Compound: O=C1/C(=C/c2ccc(Cl)cc2)N=C2Sc3cccc(O)c3N12
Activity (MCF7 [19]): 4.3% | Activity (MCF7 [20]): Active | fold change (FC) (MCF7 [21]): 2.5 | fold change (FC) (MCF7 [22]): 10 | fold change (FC) (MCF7 [23]): 6 | Activity (MCF7 [24]): 9.6% | Activity (MCF7 [26]): Active | Activity (MCF7 [27]): 61.3% | IC50 at 48 h [7]: 40 µM | IC50 [9]: 5 µM | fold change (FC) (MCF7 [28]): 3.5 | IC50 (HEK-293T): 5.8 µM | Activity (MCF7 [29]): 24.8%

inhibition (MCF7 [3]): Active | IC50 (MCF7 [1]): 3.8 µM | IC50 (MDA-MB-231 [15]): 4 µM
Compound: O=C1/C(=C/c2ccccc2)N=C2Sc3cccc(O)c3N12
fold change (FC) (MCF7 [2]): 5 | fold change (FC) (MCF7 [4]): 2 | Activity (MCF7 [5]): 36.4% | fold change (FC) (MCF7 [6]): 2 | IC50 at 48 h [7]: 35 µM | fold change (FC) (MCF7 [8]): 10 | IC50 [9]: 4.8 µM | Activity (MCF7 [10]): 17.2% | Activity (MCF7 [11]): Active | Activity (MCF7 [12]): Active | Activity (MCF7 [13]): 8.9% | Activity (MCF7 [14]): 37.5% | IC50 (HEK-293T): 4.2 µM
